Experimental data from publication PMC7933930, “Development of a small molecule that corrects misfolding and increases secretion of Z α1‐antitrypsin” (EMBO Molecular Medicine, 2021).
In brackets after ≈: the same amount, converted by molar mass.

Tests used:
human serum albumin = human serum albumin (Homo sapiens, UniProt P02768); assay type: in vitro ADME
Solubility in FaSSIF = assay type: physicochemical; details: amorphous, read-out: solubility of amorphous drug substance in FaSSIF
CYP3A4 = molecular target: T1, CYP3A4 (Homo sapiens, UniProt P08684); test: CYP3A4 TDI fold IC50 shift (human liver microsomes, midazolam); assay type: in vitro ADME; details: probe midazolam (12.5 µM), read-out: time‐dependent inhibition of CYP3A4, fold shift in IC50
T1 construct: pre‐incubated at 37°C with human liver microsomes (0.1 mg/ml); from tissue; host or cells: human liver microsomes
Protocol: Seven concentrations of GSK716 (2, 4, 10, 20, 40, 100 and 200 µM) plus a vehicle control (0.25% v/v DMSO in pre‐incubation) were pre‐incubated at 37°C with human liver microsomes (0.1 mg/ml) and NADPH (1 mM) for a range of five pre‐incubation times (5, 10, 15, 20 and 30 min) with a 0 min pre‐incubation, in duplicate. At the end of the individual pre‐incubations, an aliquot of the pre‐incubation mixture was added to an incubation mixture in a 1:20 dilution for GSK716 with the specific CYP3A4 probe substrate, midazolam (12.5 µM, equivalent to 5xKm44) and NADPH (1 mM) for a 5 min. The reactions were terminated by transferring an aliquot of incubation mixture to methanol. The samples were mixed and then centrifuged at 2,500 rpm for 30 min at 4°C. Aliquots of the supernatant were diluted with formic acid (final concentration 0.1 % v/v) in deionised water containing internal standard (metoprolol; final concentration 0.03 mg/l). Samples were analysed by LC‐MS/MS.

Dopamine D2 (DRD2S) = Dopamine D2 (DRD2S) (Homo sapiens, UniProt P14416); test: Off‐target panel: Dopamine D2 (DRD2S) (DRX); assay type: cell-based
Protocol: (§1) GSK716 selectivity and PK properties were profiled in order to investigate the suitability of GSK716 for progression into in vivo studies and the potential for taking it forward as a clinical candidate for testing in humans. Since GSK716 results in loss of inhibitory activity of α1‐antitrypsin, the effect of the compound was assessed on other closely related serpins. […] Furthermore, there were no off‐target effects in a panel of assays considered predictive of known safety liabilities that precluded further development of GSK716 (Table EV1).

LCK = LCK (Homo sapiens, UniProt P06239); test: Off‐target panel: LCK; assay type: biochemical; details: Inhibition, read-out: Mean (PXC50)
Protocol: as §1

Phospholipidosis = test: Off‐target panel: Phospholipidosis; assay type: cell-based; details: Induction (pMEC)
Protocol: as §1

Serotonin transporter [1] = molecular target: T2, Serotonin transporter (Homo sapiens, UniProt P31645); test: Off‐target panel: Serotonin transporter; assay type: cell-based
Protocol: as §1

Serotonin transporter [2] = molecular target: T2, Serotonin transporter; test: Off‐target panel: Serotonin transporter (DRX); assay type: cell-based
Protocol: as §1

Z α1‐antitrypsin = Z α1‐antitrypsin (Homo sapiens, UniProt P01009, E366K); test: Circulating monomeric Z α1‐antitrypsin in plasma of Z α1‐antitrypsin transgenic mice; assay type: in vivo, mouse; parameters: random insertion of the human Z α1‐antitrypsin gene; from tissue; host or cells: hemizygous Z α1-antitrypsin transgenic mice (liver, plasma)
Protocol: GSK716 was evaluated in a transgenic mouse model with an engineered random insertion of the human Z α1‐antitrypsin gene (Teckman et al, 2004). […] Further, older mice have larger α1‐antitrypsin inclusions that may be more difficult to reverse and any changes would be more difficult to detect than in younger animals. The PK‐PD relationship of GSK716 was explored by dosing Z α1‐antitrypsin transgenic animals with 10, 30 or 100 mg/kg GSK716 three times a day. Blood and liver were harvested on day 6 at 3 h (~ C max) and 8 h (C min) after the dose for the measurement of total and free drug in both tissues. Blood was also harvested for the measurement of monomeric Z α1‐antitrypsin in plasma. Total concentrations of GSK716 were determined by LC‐MS/MS, and the free drug in both tissues was determined using equilibrium dialysis to determine free fraction in the samples, subsequently used to derive unbound concentrations. […] Both free and total drug concentrations of GSK716 at the targeted site of action in the liver were equivalent to those in blood (Table 2).
A significant fraction of the total Z α1‐antitrypsin in the circulation is in the polymeric conformation (Tan et al, 2014). There are no antibodies that are specific for monomeric Z α1‐antitrypsin and so to directly determine its concentration, a deconvolution method was developed based on immunoassays with antibodies for either total or polymeric α1‐antitrypsin, and calibration curves with purified monomeric and polymeric Z α1‐antitrypsin. Monomeric Z α1‐antitrypsin was measured in plasma samples following 6 days of dosing, and levels were normalised to each animals’ pre‐dose control levels to account for the natural variation of Z α1‐antitrypsin between animals. […] Total drug levels and changes in Z α1‐antitrypsin following 3 days of dosing were indistinguishable from those following 6 days of dosing. There was no effect on circulating serum albumin after 5 days of dosing which provides evidence that GSK716 is specific for Z α1‐antitrypsin. Moreover, the effects are not mediated by metabolites of GSK716 as the major metabolites have much reduced or no binding to α1‐antitrypsin.
Plasma standards of monomeric and polymeric Z α1‐antitrypsin were prepared and assayed with an antibody mix comprising a 1:160 dilution of rabbit polyclonal anti‐ α1‐antitrypsin (Abcam product 9373), 0.23 µg/ml terbium anti‐mouse, 4.5 µg/ml Alexa488 goat anti‐rabbit, 0.17 µg/ml mouse anti‐total‐ α1‐antitrypsin monoclonal 3C11 and 2 µg/ml mouse 2C1 anti‐polymeric‐ α1‐antitrypsin. After a 16‐h incubation at 20°C, TR‐FRET detection was performed on an Envision plate reader (Perkin Elmer).
Plots of the FRET ratio (acceptor/donor signal) versus sample dilution result in bell‐shaped curves due to the hook effect. The polymer Z α1‐antitrypsin concentration was determined by comparing the peak positions of these bell‐shaped curves for plasma samples with those for polymer calibration samples. The polymer concentration in the plasma sample and the polymer calibration curve was then used to derive the contribution of polymer to the FRET signal in the total α1‐antitrypsin assay at the signal peak, enabling determination of the concentration of monomeric Z α1‐antitrypsin.
Hemizygous female Z α1‐antitrypsin transgenic mice were 13–15 weeks of age at start of study. Drugs were administered via oral gavage three times a day at 8‐h intervals at 10 ml/Kg as a suspension in aqueous methylcellulose containing 0.5% w/v Tween 80. […]

Sequence of Z α1‐antitrypsin (P01009 25-418 E366K): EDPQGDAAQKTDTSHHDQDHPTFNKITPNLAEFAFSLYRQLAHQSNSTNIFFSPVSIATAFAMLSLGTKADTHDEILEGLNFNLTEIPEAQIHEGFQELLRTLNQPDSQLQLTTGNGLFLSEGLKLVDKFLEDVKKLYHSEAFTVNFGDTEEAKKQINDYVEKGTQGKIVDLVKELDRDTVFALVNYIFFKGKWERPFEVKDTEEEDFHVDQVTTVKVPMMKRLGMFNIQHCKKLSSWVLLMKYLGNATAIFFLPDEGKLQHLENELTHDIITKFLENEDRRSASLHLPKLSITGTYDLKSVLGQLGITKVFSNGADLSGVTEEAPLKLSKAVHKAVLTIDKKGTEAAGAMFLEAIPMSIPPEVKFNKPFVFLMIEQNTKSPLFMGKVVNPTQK
T2 sequence (P31645 whole entry): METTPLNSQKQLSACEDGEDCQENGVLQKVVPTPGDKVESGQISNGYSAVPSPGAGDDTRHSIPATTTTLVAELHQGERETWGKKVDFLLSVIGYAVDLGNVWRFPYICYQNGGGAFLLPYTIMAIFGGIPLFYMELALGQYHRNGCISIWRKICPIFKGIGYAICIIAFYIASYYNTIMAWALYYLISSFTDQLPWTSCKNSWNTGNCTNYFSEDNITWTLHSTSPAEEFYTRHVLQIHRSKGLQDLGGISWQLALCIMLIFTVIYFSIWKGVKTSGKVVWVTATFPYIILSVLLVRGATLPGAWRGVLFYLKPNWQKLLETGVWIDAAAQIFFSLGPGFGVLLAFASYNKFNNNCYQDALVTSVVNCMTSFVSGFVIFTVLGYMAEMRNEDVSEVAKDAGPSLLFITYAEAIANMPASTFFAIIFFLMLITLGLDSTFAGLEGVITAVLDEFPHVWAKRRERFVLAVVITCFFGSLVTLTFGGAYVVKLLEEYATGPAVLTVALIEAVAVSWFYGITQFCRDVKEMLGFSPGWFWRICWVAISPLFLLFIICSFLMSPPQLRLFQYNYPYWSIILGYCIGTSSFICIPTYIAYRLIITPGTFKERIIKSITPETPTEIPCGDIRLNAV
Sequence of Dopamine D2 (DRD2S) (P14416 1-414 isoform P14416-2): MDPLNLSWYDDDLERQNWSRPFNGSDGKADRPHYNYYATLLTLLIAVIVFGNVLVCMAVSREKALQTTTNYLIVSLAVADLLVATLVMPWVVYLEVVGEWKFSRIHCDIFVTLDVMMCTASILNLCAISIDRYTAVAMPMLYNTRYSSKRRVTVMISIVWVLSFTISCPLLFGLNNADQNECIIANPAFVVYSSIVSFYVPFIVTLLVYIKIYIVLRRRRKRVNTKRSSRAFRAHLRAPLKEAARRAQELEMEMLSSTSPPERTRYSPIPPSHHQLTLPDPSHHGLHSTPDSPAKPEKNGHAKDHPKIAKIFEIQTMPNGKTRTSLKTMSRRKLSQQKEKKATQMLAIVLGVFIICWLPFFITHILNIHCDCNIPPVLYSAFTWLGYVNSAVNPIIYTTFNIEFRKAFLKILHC
Sequence of LCK (P06239 whole entry, species assumed): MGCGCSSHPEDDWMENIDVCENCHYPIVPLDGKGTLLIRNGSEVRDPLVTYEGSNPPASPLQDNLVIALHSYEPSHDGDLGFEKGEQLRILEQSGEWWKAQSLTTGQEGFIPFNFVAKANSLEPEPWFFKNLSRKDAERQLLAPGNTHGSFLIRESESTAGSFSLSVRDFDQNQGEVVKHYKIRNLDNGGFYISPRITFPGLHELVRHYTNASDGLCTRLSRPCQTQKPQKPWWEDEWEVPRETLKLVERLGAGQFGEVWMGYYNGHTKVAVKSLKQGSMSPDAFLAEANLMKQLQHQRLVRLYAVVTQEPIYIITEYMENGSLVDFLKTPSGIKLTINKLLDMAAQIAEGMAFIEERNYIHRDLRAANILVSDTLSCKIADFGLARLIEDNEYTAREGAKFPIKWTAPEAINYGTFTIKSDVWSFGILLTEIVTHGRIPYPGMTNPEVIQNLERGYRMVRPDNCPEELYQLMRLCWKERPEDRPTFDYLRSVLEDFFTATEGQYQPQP
Sequence of human serum albumin (P02768 25-609): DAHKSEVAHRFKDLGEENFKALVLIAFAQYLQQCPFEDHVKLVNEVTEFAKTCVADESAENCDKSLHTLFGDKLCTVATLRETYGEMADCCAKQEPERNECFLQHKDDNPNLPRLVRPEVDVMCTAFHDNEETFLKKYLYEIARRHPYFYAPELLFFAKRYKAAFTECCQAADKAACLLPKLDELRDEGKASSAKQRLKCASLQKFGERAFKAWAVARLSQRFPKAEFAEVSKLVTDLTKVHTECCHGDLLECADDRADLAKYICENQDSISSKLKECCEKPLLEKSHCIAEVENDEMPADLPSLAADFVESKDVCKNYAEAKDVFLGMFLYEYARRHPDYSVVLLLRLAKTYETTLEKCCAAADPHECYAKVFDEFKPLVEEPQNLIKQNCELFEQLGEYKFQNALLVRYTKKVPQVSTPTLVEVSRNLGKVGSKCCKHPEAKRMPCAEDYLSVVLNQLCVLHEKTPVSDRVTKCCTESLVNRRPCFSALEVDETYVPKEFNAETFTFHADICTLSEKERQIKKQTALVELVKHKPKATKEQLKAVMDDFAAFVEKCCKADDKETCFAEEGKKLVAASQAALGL
T1 sequence (P08684 whole entry): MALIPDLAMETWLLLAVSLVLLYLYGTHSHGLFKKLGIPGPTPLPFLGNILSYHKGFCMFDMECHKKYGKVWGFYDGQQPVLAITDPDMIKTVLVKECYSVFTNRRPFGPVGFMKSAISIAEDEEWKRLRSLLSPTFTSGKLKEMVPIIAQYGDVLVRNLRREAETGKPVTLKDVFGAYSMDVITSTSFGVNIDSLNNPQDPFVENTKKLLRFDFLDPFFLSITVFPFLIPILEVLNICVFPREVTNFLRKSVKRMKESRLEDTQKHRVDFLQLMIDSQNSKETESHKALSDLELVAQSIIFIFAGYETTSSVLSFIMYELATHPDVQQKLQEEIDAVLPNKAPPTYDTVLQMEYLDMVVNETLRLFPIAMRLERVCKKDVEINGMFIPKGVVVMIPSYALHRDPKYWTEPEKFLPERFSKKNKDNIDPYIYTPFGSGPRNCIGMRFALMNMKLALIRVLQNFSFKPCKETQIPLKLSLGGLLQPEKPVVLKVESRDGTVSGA

Question: For `CCC[C@@H](NC(=O)c1cccc2c1CC(=O)N2)[C@@H](O)c1cccc(F)c1C` [GSK716], which “binding to human serum albumin” value (human serum albumin) is on record?
Answer: 84.2%

Question: What about the solubility (Solubility in FaSSIF) of the same molecule?
Answer: 969 µg/mL (≈ 2620 µM)

Question: And the IC50 shift (CYP3A4)?
Answer: 1.59

Question: What about the EC50 (Dopamine D2 (DRD2S)) of the same molecule?
Answer: > 100 µM

Question: What about the IC50 (Dopamine D2 (DRD2S)) of the same molecule?
Answer: > 100 µM

Question: What about the IC50 (LCK) of the same molecule?
Answer: > 31.6 µM

Question: What about the “Mean (PXC50): pMEC” value (Phospholipidosis) of the same molecule?
Answer: pMEC= 5.8

Question: What about the IC50 (Serotonin transporter [1]) of the same molecule?
Answer: > 100 µM

Question: What about the IC50 (Serotonin transporter [2]) of the same molecule?
Answer: > 100 µM

Question: And the “change in circulating Z α1‐antitrypsin” value (Z α1‐antitrypsin; 10 mg/kg three times a day, oral, 6 days of dosing)?
Answer: significant, dose‐dependent increases

Question: What about the “change in circulating Z α1‐antitrypsin” value (Z α1‐antitrypsin; 30 mg/kg three times a day, oral, 6 days of dosing) of the same molecule?
Answer: significant, dose‐dependent increases

Question: What about the “mean increase of monomeric Z α1‐antitrypsin in plasma over pre‐dosing baseline” value (Z α1‐antitrypsin; 100 mg/kg three times a day, days 15 and 21 of dosing) of the same molecule?
Answer: sevenfold to eightfold

Question: What about the “mean increase in circulating monomeric Z α1‐antitrypsin levels over pre‐dose” value (Z α1‐antitrypsin; 100 mg/kg three times a day, oral, 6 days of dosing) of the same molecule?
Answer: sevenfold

Question: And the “increase in circulating levels of Z α1‐antitrypsin” value (Z α1‐antitrypsin; Z α1‐antitrypsin transgenic mice, within 3 days)?
Answer: sevenfold
